Laboratory results from patent US9000036B2, “Compositions and methods for targeting of treating neoplasms” (priority 2006, dated 2015).

What was measured:
[1] = tested on: CD4 and CD8; assay: Immunological pathological analysis of removed lymphoma tumor (CD4, CD8); assay type: in vivo; conditions: C57 mice, after three weeks iv treatment
Method: (§1) Lymphoma cells line growth in the culture for days to reach about 10×10^3, then it is implanted into the right arm of mice C57, about one week, tumor grow to 1 cm size. We prepared that Bruceantin […], Adymicine 10 mg and hapten DNP 0.5 mg were added into the stannous chloride 0.05 mg solution for mixture incubate 5 minutes and produced a conjugated as complex. For treatment group: iv injection of this conjugated solution in 0.2 ml, two-time/week fro three weeks, for control group: iv injection of only 0.2 ml Ara-C, two-time/week for three weeks.

[2] = tested on: D4 and CD8 antibodies activity; assay: CytoxiLux analysis (flow cytometry, FIGS. 1A-B); assay type: cell-based; conditions: lymphoma C57 mice
Method: FIGS. 1A-B show flow cytometry results for CD4 and CD8 immunostaining cells
as §1

[3] = tested on: CD4 and CD8; assay: Immunological pathological analysis of removed osteosarcoma tumor (CD4, CD8); assay type: in vivo; conditions: C57 mice, after three weeks iv treatment
Method: Osteosarcoma cell line growth in the culture for days to reach 10×10^3, then it is implanted into right arm of mice C57, wait about one week, tumor grow to 1 cm size. We prepared that Methylene Diphosphonate (MDP) 100 mg, Ara-C 50 mg and hapten DNP 0.5 mg were added into the stannous chloride 0.05 mg solution for mixture, incubate 5 minutes and produced a conjugated as complex. For treatment group: iv injection of this conjugated solution in 0.2 ml, two time/week for three weeks, for control group: iv injection of only 0.2 ml Ara-C, two time/week for three weeks. […] Surgical removed tumor for immunological pathological analysis, CD4 and CD8 show positive for MDP-Ara-C-DNP conjugated therapy group, control group show negative of CD4 and CD8.

[4] = tested on: non-Hodgkin lymphoma; assay: Patient case: malignant lymphoma, chemotherapy and intravenous target therapy; assay type: in vivo, human; conditions: one patient, DDP, Vp-16 and IF0 given together
Method: From November of 2002 to August of 2003, the radiotherapy at both axillary regions was administered with DT49Gy, the radiotherapy at both neck regions were administered with DT45Gy. […] The hydrops was drawn off by puncture from the right thoracic cavity, cytology reported: a large amount of lymphocytes and mesothelial cells. The patient was admitted to the hospital for further treatment.
The B ultrasonotrophy on Feb.
After the intravenous target therapy of Bruceantin, Tetrandrine, thalicarpine, maytansine seperately as target agents in combination with anti-cancer drugs by stannous chloride affection for a conjugate as complex for six courses (all kinds of anti-cancer drugs), the effect was obvious.
From Feb. 27, 2006 to Mar. 24, 2006, the intravenous target chemotherapy of Bruceantin and Tetrandrine separately as target agents in combination with anti-cancer drugs by stannous chloride effective for conjugate as complex was administered for a period of four week. On Mar.
The intravenous target chemotherapy of Bruceantin as targeting compound in combination with anti-cancer drugs by stannous chloride function for conjugate as complex was continued for several courses. The CT re-examination in Shandong Medical Imaging Research Institute on Jul.
During the hospitalization, the patient was administered Bruceantin as targeting compound, in combination with the medicaments of 16 times (Arsenic trioxide 5 mg) and 6 times (Ara-C 50 mg), 12 times (cyclophosphamide 0.1), 2 times and VP 16) 50 mg.

[5] = tested on: gastric antrum cancer, intrahepatic lump; conditions: human, in vivo, iv
Method: The lateral lump by the lesser curvature of gastric antrum was administered a intratumoral chemotherapy for 3 times/week for three weeks, the lump at the head of pancreas region was administered intratumoral chemotherapy for 2 times/week fro two weeks, abdominal cavity was perfused for 6 times, in which 5-Fu+DDP 20 mg+IL-2 10^6 u were administered for 2 times, Bruceantin plus Adriamycin were perfused to abdominal cavity for 4 times in three weeks.
The intrahepatic lump was administered intratumoral chemotherapy for once. […] ETIFENIN (EHIDA) as target agent in combination with anticancer drugs plus stannous chloride were mixed for a conjugate as a complex, then it was administered intravenous for target therapy and repeated same therapy for 6 times (the formulated medicament mainly comprises: DDP 20 mg for 2 times, 5-Fu 0.5 for 2 times, Ara-C 25 mg for 2 times).

`Nc1ccn([C@@H]2O[C@H](CO)[C@@H](O)[C@@H]2O)c(=O)n1` [Ara-C, Cytidine Arabinosyladenine] was tested. Which “CD4 and CD8 in removed tumor” value [1] did it give?
The value was “negative”.

What about the “index of D4 and CD8 antibodies activity” value [2] of the same compound?
The value was 28%.

What about the “CD4 and CD8 in removed tumor” value [3] of the same compound?
Its value is “negative”.

For `O=P1(NCCCl)OCCCN1CCCl` (stereo not shown) [IF0], which “bone marrow inhibition after chemotherapy” value (“bone marrow inhibition” for short) [4] is on record?
The value was “inhibited to the III degree”.

How did the symptoms after treatment [5] turn out when “ETIFENIN (EHIDA) as target agent in combination with anticancer drugs” was run?
Its symptoms after treatment is “abdominal pain, abdominal distention, decreased appetite, accompanied by night sweating and debilitation”.

For `COc1cc([C@@H]2c3cc4c(cc3[C@@H](O[C@@H]3O[C@@H]5CO[C@@H](C)O[C@H]5[C@H](O)[C@H]3O)[C@H]3COC(=O)[C@H]23)OCO4)cc(OC)c1O` [Vp-16], which “bone marrow inhibition” value [4] is on record?
The value was “inhibited to the III degree”.

`N.N.[Cl][Pt][Cl]` [DDP, Cisplatin] was tested. Which “bone marrow inhibition” value [4] did it give?
The value was “inhibited to the III degree”.
